Test results from ChEMBL document CHEMBL1909046, “DrugMatrix in vitro pharmacology data”.

How the values were obtained:
[1] = target: T1, Alpha-2C adrenergic receptor (Homo sapiens, UniProt P18825); assay: DRUGMATRIX: Adrenergic Alpha-2C radioligand binding (ligand: [3H] MK-912); type: cell membranes, Sf9, Membrane; details: sf9
T1 sequence (P18825 whole entry): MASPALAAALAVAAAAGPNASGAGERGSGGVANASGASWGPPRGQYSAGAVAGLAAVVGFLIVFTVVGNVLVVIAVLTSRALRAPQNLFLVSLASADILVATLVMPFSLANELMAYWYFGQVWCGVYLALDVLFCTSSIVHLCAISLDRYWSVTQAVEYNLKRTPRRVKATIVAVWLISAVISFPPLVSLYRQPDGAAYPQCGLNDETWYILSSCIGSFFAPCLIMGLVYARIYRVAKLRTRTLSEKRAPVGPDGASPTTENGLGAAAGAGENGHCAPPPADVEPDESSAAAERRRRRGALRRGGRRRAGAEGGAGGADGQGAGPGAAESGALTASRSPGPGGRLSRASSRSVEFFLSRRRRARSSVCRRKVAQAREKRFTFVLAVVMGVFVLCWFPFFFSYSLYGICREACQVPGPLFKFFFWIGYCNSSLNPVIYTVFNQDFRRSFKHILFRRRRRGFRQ

[2] = target: Sodium-dependent noradrenaline transporter (Homo sapiens, UniProt P23975); assay: DRUGMATRIX: Norepinephrine Transporter radioligand binding (ligand: [125I] RTI-55); type: cell membranes, MDCK, Membrane; details: Not Active = under 50% inhibition at 10 µM
[3] = target: T2, Thromboxane-A synthase (Homo sapiens, UniProt P24557); assay: biochemical; type: tissue-based, Platelet; details: platelet;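 further: enzyme inhibition assay with PGH2 supplied as substrate; in other assays of this panel Not Active means under 50% inhibition at 10 µM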
T2 sequence (P24557 whole entry): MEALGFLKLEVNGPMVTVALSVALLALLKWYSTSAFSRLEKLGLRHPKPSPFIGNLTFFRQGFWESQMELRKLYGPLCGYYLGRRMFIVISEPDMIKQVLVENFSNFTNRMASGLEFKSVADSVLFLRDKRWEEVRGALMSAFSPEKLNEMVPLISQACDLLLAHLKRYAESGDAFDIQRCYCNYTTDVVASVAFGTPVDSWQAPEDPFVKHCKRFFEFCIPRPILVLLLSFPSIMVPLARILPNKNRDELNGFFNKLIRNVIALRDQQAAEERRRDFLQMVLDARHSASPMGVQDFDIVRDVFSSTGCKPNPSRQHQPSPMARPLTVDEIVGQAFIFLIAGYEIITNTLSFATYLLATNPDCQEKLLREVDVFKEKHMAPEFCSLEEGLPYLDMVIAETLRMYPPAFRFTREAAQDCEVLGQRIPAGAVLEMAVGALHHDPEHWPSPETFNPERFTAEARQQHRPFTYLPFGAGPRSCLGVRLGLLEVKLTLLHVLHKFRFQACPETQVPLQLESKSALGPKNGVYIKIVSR

[4] = target: T3, C-X-C chemokine receptor type 1 (Homo sapiens, UniProt P25024); further: in other assays of this panel Not Active means under 50% inhibition at 10 µM
T3 sequence (P25024 whole entry): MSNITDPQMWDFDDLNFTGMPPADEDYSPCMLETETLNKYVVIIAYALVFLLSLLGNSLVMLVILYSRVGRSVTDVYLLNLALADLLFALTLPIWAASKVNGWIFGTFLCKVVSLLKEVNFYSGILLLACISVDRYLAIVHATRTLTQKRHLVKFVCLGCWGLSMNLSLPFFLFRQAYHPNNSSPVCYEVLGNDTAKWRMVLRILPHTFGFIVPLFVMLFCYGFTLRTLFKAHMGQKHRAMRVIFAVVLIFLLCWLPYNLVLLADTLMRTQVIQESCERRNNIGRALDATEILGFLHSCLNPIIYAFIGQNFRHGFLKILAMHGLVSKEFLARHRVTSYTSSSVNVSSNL

[5] = DRUGMATRIX: GABAA, Muscimol, Central radioligand binding (ligand: [3H] Muscimol); type: cell membranes, Rattus norvegicus, Wistar, Brain, Membrane; details: Not Active = under 50% inhibition at 10 µM
[6] = target: T4, Amine oxidase [flavin-containing] A (Homo sapiens, UniProt P21397); assay: DRUGMATRIX: Monoamine Oxidase MAO-A enzyme inhibition (substrate: Kynuramine); set-up: species or system BTI-TN-5B1-4; details: bti-tn-5b1-4; Not Active = under 50% inhibition at 10 µM
T4 sequence (P21397 whole entry): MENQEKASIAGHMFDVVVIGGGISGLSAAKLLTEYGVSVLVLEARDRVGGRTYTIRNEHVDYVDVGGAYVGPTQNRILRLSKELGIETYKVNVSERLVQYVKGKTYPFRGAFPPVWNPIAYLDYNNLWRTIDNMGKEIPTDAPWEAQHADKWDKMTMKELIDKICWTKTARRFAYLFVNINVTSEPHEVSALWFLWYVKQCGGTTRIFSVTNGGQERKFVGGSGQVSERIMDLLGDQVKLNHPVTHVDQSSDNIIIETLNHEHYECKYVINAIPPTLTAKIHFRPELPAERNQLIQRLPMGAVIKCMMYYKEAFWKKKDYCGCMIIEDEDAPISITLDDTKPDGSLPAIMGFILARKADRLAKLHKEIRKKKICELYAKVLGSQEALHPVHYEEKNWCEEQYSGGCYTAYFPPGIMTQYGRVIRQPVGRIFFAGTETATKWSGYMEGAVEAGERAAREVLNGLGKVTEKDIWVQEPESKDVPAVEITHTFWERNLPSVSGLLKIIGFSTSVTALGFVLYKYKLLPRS

[7] = DRUGMATRIX: Potassium Channel [KATP] radioligand binding (ligand: [3H] Glyburide); type: cell membranes, Membrane; details: hit-t15; Not Active = under 50% inhibition at 10 µM
[8] = target: T5, Neutrophil elastase (Homo sapiens, UniProt P08246); type: tissue-based;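 further: inhibition of neutrophil elastase enzyme activity, measured with a p-nitroanilide-linked peptide substrate; in other assays of this panel Not Active means under 50% inhibition at 10 µM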
T5 sequence (P08246 whole entry): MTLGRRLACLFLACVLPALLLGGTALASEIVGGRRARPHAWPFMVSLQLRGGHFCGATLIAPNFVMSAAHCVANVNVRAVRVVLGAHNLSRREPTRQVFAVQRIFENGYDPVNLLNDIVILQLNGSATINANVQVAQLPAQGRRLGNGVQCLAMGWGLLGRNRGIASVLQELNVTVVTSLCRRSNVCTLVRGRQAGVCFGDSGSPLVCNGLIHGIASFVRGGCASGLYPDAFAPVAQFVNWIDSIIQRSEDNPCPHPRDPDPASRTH

[9] = target: Tyrosine-protein kinase Lck (Homo sapiens, UniProt P06239); assay: DRUGMATRIX: Protein Tyrosine Kinase, LCK enzyme inhibition (substrate: Poly(Glu:Tyr)); type: cell-based, Insect cells; details: insect cells; Not Active = under 50% inhibition at 10 µM
Chain of Tyrosine-protein kinase Lck (P06239 whole entry): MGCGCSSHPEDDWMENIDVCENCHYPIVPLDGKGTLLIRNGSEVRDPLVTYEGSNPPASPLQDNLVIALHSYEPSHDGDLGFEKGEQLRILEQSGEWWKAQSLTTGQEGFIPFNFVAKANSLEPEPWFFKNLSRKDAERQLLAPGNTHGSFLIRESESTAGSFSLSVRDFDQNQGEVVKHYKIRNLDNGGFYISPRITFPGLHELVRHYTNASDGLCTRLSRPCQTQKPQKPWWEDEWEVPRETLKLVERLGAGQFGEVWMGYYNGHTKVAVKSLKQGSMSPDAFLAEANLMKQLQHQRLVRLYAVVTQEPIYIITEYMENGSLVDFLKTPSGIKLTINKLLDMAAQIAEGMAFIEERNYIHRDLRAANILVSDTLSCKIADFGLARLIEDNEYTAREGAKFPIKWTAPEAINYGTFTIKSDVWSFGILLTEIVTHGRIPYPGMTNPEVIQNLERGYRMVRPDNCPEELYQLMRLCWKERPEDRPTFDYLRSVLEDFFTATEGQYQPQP

Chain of Sodium-dependent noradrenaline transporter (P23975 whole entry): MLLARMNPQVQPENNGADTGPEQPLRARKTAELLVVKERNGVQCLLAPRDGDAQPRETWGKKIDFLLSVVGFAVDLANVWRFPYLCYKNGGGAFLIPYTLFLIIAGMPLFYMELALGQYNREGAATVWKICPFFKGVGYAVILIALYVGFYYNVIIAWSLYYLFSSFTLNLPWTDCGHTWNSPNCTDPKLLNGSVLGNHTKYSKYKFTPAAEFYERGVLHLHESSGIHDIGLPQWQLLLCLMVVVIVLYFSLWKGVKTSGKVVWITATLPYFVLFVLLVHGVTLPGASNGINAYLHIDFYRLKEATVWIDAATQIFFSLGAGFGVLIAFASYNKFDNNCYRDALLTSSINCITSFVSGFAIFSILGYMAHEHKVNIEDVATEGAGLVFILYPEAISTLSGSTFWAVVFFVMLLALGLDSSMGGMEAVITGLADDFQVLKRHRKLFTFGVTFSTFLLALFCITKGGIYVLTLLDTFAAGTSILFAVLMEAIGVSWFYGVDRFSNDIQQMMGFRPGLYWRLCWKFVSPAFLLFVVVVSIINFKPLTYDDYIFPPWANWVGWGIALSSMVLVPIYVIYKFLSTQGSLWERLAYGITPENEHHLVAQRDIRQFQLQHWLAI

Row | SMILES | IC50 [1] | IC50 ([2]; mdck) | IC50 [3] | IC50 [4] | IC50 [5] | Ki [5] | IC50 [6] | IC50 [7] | Ki [7] | IC50 [8] | IC50 [9] | IC50 ([2]; read-out: IC50) [µM] | Ki ([2]; read-out: Ki) [µM]
1 | COc1ccc2cc(CC(=O)O)ccc2c1 | Not Active | Not Active | Not Active | Not Active | Not Active | Not Active | Not Active | Not Active | Not Active | Not Active | Not Active |  | 
2 | O=C1CN=C(c2ccccc2)c2cc([N+](=O)[O-])ccc2N1 [NITRAZEPAM] | Not Active | Not Active | Not Active | Not Active | Not Active | Not Active | Not Active | Not Active | Not Active | Not Active | Not Active |  | 
3 | CC1=Nc2ccc(Cl)cc2S(=O)(=O)N1 [DIAZOXIDE] | Not Active | Not Active | Not Active | Not Active | Not Active | Not Active | Not Active | Not Active | Not Active | Not Active | Not Active |  | 
4 | CCCCCCCCCc1ccc(O)cc1 [4-NONYLPHENOL] | Not Active |  | Not Active | Not Active | Not Active | Not Active | Not Active | Not Active | Not Active | Not Active | Not Active | 1.25 | 1.24
5 | CC(C)(S)[C@@H](N)C(=O)O [PENICILLAMINE] | Not Active | Not Active | Not Active | Not Active | Not Active | Not Active | Not Active | Not Active | Not Active | Not Active | Not Active |  | 
6 | CC(=O)CCCCn1c(=O)c2c(ncn2C)n(C)c1=O [PENTOXIFYLLINE] | Not Active | Not Active | Not Active | Not Active | Not Active | Not Active | Not Active | Not Active | Not Active | Not Active | Not Active |  | 
7 | Nc1nc(=O)[nH]cc1F [FLUCYTOSINE] | Not Active | Not Active | Not Active | Not Active | Not Active | Not Active | Not Active | Not Active | Not Active | Not Active | Not Active |  | 
8 | CCC1(c2ccccc2)C(=O)NCNC1=O [PRIMIDONE] | Not Active | Not Active | Not Active | Not Active | Not Active | Not Active | Not Active | Not Active | Not Active | Not Active | Not Active |  | 
9 | CCCCOC(=O)c1ccc(N)cc1 [BUTAMBEN] | Not Active | Not Active | Not Active | Not Active | Not Active | Not Active | Not Active | Not Active | Not Active | Not Active | Not Active |  | 
10 | C=C1[C@@H]2CCC3[C@@](CC[C@@H]4[C@H](C(=O)O)C[C@@H](O[C@@H]5O[C@H](CO)[C@@H](OS(=O)(=O)[O-])[C@H](OS(=O)(=O)[O-])[C@H]5OC(=O)CC(C)C)C[C@@]34C)(C2)[C@@H]1O.[K+].[K+] (some centres undefined) [ATRACTYLOSIDE] | Not Active | Not Active | Not Active | Not Active | Not Active | Not Active | Not Active | Not Active | Not Active | Not Active | Not Active |  | 
11 | CC1(C)[C@@H](O[C@H]2O[C@H](C(=O)O)[C@@H](O)[C@H](O)[C@H]2O[C@@H]2O[C@H](C(=O)O)[C@@H](O)[C@H](O)[C@H]2O)CC[C@]2(C)[C@H]3C(=O)C=C4[C@@H]5C[C@@](C)(C(=O)O)CC[C@]5(C)CC[C@@]4(C)[C@]3(C)CC[C@@H]12 [GLYCYRRHIZIN] | Not Active | Not Active | Not Active | Not Active | Not Active | Not Active | Not Active | Not Active | Not Active | Not Active | Not Active |  | 
12 | Cn1cnc([N+](=O)[O-])c1Sc1ncnc2nc[nH]c12 [AZATHIOPRINE] | Not Active | Not Active | Not Active | Not Active | Not Active | Not Active | Not Active | Not Active | Not Active | Not Active | Not Active |  | 
13 | CC(C)n1c(/C=C/C(O)CC(O)CC(=O)O)c(-c2ccc(F)cc2)c2ccccc21 (centres undefined) [FLUVASTATIN] | Not Active | Not Active | Not Active | Not Active | Not Active | Not Active | Not Active | Not Active | Not Active | Not Active | Not Active |  | 
